Reference: patent publication US8921376B2, “Pyrrolopyridines useful as inhibitors of protein kinase” (Vertex Pharmaceuticals Incorporated, priority 2005, dated 2014)

Tests used:
Format in all cases: biochemical
JAK3 = target: T1, JAK3 (Homo sapiens, UniProt P52333); assay: JAK3 inhibition assay (33P incorporation into poly(Glu)4Tyr); details: enzyme inhibition, Table 5
T1 sequence (P52333 1-1124): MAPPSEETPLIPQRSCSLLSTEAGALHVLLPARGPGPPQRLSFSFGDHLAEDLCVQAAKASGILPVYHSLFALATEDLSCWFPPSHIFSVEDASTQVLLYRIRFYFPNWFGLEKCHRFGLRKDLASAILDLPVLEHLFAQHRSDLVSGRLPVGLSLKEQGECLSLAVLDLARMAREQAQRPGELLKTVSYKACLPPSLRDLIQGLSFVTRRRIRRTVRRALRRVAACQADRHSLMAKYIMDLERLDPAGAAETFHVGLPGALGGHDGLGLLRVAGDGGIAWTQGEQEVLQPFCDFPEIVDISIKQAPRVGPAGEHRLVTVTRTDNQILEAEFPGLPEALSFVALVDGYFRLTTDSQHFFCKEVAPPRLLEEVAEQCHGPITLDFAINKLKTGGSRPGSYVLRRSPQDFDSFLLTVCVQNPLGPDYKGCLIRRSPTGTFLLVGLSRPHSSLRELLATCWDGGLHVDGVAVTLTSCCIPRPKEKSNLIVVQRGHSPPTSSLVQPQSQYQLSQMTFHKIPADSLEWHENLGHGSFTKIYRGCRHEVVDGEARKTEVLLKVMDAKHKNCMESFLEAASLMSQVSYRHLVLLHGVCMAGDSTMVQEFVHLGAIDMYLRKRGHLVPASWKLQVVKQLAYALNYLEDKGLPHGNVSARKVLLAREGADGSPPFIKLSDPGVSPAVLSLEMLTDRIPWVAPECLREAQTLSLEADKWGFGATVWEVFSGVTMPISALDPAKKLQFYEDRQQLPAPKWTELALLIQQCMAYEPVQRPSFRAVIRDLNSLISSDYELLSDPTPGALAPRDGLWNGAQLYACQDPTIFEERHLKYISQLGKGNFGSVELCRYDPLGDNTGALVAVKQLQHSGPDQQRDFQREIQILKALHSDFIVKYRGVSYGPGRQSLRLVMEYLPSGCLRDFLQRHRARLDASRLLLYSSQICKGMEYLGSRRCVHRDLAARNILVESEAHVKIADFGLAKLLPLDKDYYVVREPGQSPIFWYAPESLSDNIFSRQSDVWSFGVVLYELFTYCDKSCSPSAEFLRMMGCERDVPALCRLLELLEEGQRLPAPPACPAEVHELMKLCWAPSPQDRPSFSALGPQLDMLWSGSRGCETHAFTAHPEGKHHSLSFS
Experimental: (§1) Compounds were screened for their ability to inhibit JAK using the assay shown below. Reactions were carried out in a kinase buffer containing 100 mM HEPES (pH 7.4), 1 mM DTT, 10 mM MgCl2, 25 mM NaCl, and 0.01% BSA.
(§2) Substrate concentrations in the assay were 5 μM ATP (200 μCi/μmole ATP) and 1 μM poly(Glu)4Tyr. Reactions were carried out at 25° C. and 1 nM JAK3.
(§3) To each well of a 96 well polycarbonate plate was added 1.5 μl of a candidate JAK3 inhibitor along with 50/1 of kinase buffer containing 2 μM poly(Glu)4Tyr and 10 μM ATP. This was then mixed and 50 μl of kinase buffer containing 2 nM JAK3 enzyme was added to start the reaction. After 20 minutes at room temperature (25 C), the reaction was stopped with 50 μl of 20% trichloroacetic acid (TCA) that also contained 0.4 mM ATP. The entire contents of each well were then transferred to a 96 well glass fiber filter plate using a TomTek Cell Harvester. After washing, 60 μl of scintillation fluid was added and ^33P incorporation detected on a Perkin Elmer TopCount.

JAK2 = JAK2 (Homo sapiens, UniProt O60674); assay: JAK2 inhibition assay (as Example 3 with JAK-2 enzyme); details: enzyme inhibition, Table 5
Chain of JAK2 (O60674 whole entry): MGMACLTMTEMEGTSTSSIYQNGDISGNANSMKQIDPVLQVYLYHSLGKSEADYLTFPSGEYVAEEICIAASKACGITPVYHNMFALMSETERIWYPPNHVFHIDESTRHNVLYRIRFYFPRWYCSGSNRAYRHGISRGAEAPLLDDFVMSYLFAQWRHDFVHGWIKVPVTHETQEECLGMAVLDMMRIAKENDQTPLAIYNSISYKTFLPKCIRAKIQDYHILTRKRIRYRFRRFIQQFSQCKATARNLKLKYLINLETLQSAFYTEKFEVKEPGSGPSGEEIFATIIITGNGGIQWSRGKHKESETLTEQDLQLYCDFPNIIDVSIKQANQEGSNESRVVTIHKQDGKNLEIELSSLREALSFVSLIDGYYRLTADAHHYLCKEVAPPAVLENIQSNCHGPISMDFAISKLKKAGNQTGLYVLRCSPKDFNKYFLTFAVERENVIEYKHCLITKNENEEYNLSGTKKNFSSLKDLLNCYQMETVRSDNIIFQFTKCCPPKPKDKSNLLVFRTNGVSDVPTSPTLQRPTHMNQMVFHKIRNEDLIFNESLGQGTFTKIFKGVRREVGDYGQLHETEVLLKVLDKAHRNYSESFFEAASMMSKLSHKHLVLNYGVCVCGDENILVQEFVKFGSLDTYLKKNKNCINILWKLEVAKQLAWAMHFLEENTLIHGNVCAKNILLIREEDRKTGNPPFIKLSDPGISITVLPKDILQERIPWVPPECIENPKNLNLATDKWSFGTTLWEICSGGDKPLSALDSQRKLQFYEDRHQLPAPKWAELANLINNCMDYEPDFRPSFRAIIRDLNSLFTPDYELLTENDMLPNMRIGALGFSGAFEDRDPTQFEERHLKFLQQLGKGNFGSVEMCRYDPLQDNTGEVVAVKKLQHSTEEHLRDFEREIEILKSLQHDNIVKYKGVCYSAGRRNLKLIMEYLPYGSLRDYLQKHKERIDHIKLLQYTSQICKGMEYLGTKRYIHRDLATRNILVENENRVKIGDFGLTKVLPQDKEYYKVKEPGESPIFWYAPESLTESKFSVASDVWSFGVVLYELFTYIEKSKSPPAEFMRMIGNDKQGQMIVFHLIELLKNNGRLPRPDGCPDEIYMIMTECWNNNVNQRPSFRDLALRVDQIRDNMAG
Experimental: as §1, §2, §3
The assays were as described above in Example 3 except that JAK-2 enzyme was used, the final poly(Glu)4Tyr concentration was 15 μM, and final ATP concentration was 12 μM.

ROCK I = ROCK I (Homo sapiens, UniProt Q13464); assay: ROCK-I inhibition assay (radioactive enzyme assay, MBP substrate); details: enzyme inhibition, Ki(app), Table 5
Chain of ROCK I (Q13464 whole entry): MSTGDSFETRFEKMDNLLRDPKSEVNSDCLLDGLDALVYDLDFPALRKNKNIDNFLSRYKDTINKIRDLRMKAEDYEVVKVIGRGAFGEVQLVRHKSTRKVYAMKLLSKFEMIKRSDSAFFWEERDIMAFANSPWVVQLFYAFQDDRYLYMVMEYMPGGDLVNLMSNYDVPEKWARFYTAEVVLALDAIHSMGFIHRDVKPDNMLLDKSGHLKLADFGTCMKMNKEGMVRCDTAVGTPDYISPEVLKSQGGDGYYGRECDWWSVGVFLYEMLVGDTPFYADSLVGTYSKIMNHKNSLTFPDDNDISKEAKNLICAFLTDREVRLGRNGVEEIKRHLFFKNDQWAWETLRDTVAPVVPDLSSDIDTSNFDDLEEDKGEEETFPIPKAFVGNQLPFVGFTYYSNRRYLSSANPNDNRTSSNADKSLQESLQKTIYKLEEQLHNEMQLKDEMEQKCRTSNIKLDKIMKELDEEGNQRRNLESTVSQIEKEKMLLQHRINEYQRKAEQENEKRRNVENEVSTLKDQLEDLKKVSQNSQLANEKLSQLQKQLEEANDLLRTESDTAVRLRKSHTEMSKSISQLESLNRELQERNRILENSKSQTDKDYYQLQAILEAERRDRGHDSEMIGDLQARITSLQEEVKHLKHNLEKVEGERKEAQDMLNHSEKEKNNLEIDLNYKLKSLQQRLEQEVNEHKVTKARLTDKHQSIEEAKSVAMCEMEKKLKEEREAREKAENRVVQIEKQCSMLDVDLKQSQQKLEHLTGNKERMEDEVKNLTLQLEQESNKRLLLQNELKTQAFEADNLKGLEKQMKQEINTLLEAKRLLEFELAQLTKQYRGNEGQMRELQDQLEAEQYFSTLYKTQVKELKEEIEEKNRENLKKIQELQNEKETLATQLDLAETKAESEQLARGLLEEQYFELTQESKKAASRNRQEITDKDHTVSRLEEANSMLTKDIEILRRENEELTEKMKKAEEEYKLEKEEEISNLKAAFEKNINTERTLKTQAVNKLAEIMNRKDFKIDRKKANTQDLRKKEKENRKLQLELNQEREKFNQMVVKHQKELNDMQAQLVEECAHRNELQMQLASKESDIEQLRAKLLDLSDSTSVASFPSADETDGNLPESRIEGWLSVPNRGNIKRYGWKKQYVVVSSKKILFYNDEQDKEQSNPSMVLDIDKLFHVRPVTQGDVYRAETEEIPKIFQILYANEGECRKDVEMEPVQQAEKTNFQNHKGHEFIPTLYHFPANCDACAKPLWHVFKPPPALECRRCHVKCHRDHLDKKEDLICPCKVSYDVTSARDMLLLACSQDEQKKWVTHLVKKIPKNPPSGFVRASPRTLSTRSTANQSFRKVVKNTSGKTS
Experimental: Compounds were screened for their ability to inhibit ROCK using a standard radioactive enzyme assay. Assays were carried out in a solution containing 100 mM HEPES (pH 7.5), 10 mM MgCl2, 25 mM NaCl, 2 mM DTT, and 1.5% DMSO. Final substrate concentrations in the assay were 13 μM [γ-^33P] ATP (25 mCi ^33P ATP/mmol ATP, Perkin Elmer, Cambridge, Mass./Sigma Chemicals, St Louis, Mo.) and 27 μM Myelin Basic Protein (MBP). Final enzyme concentration in the assay was 5 nM ROCK. Assays were carried out at room temperature. 1.5 μl of DMSO stock containing serial dilutions of the compound of the present invention (concentrations ranging from 10 μM to 2.6 nM) was placed in a 96 well plate. 50 μl of Solution 1 (100 mM HEPES (pH 7.5), 10 mM MgCl2, […]) was added to the plate. The reaction was initiated by addition of 50 μl of Solution 2 (100 mM HEPES (pH 7.5), 10 mM MgCl2, 4 mM DTT, […] and 10 nM ROCK). After 2 hours the reaction was quenched with 50 μL of 30% trichloroacetic acid (TCA, Fisher) containing 9 mM ATP. Transfer of 140 μL of the quenched reaction to a glass fiber filter plate (Corning, Cat. No. 3511) was followed by washing 3 times with 5% TCA. 50 μl of Optima Gold scintillation fluid (Perkin Elmer) was added and the plates were counted on a Top Count (Perkin Elmer). After removing mean background values for all of the data points the data was fit using Prism software to obtain a Ki(app).

Row | SMILES | Ki (JAK3) [nM] | Ki (JAK2) [nM] | Ki (ROCK I) [nM]
1 | CCC(C)CNc1cccc(-c2ccnc3[nH]ccc23)n1 (stereo not drawn) [compound 72, N-(2-Methylbutyl)-6-(1H-pyrrolo[2,3-b]pyridin-4-yl)pyridin-2-amine] | 500 to 5000 | < 500 | 500 to 5000
2 | COc1cccc(CNc2cccc(-c3ccnc4[nH]ccc34)n2)c1 [compound 73, N-(3-Methoxybenzyl)-6-(1H-pyrrolo[2,3-b]pyridin-4-yl)pyridin-2-anine] | 500 to 5000 | 500 to 5000 | 500 to 5000
3 | Cc1cccnc1-c1ccnc2[nH]ccc12 [compound 74, 4-(3-methylpyridin-2-yl)-1H-pyrrolo[2,3b]pyridine] | 500 to 5000 | > 5000 | 500 to 5000
4 | Clc1ccccc1CCNc1cccc(-c2c(Cl)cnc3[nH]ccc23)n1 [compound 75, N-(2-Chlorophenethyl)-6-(5-chloro-1H-pyrrolo[2,3-b]pyridin-4-yl)pyridin-1-amine] | 500 to 5000 | 500 to 5000 | 500 to 5000
5 | CC(C)CNc1cccc(-c2c(Cl)cnc3[nH]ccc23)n1 [compound 78, 6-(5-Chloro-1H-pyrrolo[2,3-b]pyridin-4-yl)-N-isobutylpyridin-2-anine] | 500 to 5000 | 500 to 5000 | 500 to 5000
6 | Clc1cnc2[nH]ccc2c1-c1cccc(N2CCCC2)n1 [compound 79, 5-Chloro-4-(6-(pyrrolidin-1-yl)pyridine-2-yl)-1H-pyrrolo[2,3-b]pyridine] | 500 to 5000 | 500 to 5000 | 500 to 5000
7 | CNCc1cccc(-c2ccnc3[nH]ccc23)c1 [compound 84, Methyl-[3-(1H-pyrrolo[2,3-b]pyridin-4-yl)-benzyl]-amine] | 500 to 5000 | 500 to 5000 | < 500
8 | c1cc(CNC2CC2)cc(-c2ccnc3[nH]ccc23)c1 [compound 86, Cyclopropyl-[3-(1H-pyrrolo[2,3-b]pyridin-4-yl)-benzyl]-amine] | 500 to 5000 | 500 to 5000 | < 500
9 | c1cc(CN2CCCCC2)cc(-c2ccnc3[nH]ccc23)c1 [compound 87, 4-(3-Piperidin-1-ylmethyl-phenyl)-1H-pyrrolo[2,3-b]pyridine] | 500 to 5000 | 500 to 5000 | 500 to 5000
10 | c1cc(CN2CCOCC2)cc(-c2ccnc3[nH]ccc23)c1 [compound 88, 4-(3-Morpholin-4-ylmethyl-phenyl)-1H-pyrrolo[2,3-b]pyridine] | 500 to 5000 | 500 to 5000 | 500 to 5000
11 | CN1CCN(Cc2cccc(-c3ccnc4[nH]ccc34)c2)CC1 [compound 89, 4-[3-(4-Methyl-piperazin-1-ylmethyl)-phenyl]-1H-pyrrolo[2,3-b]pyridine] | 500 to 5000 | 500 to 5000 | 500 to 5000
12 | CNC(=O)c1cccc(-c2ccnc3[nH]ccc23)c1 [compound 91, N-Methyl-3-(1H-pyrrolo[2,3-b]pyridin-4-yl)-benzamide] | 500 to 5000 | 500 to 5000 | 500 to 5000
13 | CN(C)C(=O)c1cccc(-c2ccnc3[nH]ccc23)c1 [compound 92, N,N-Dimethyl-3-(1H-pyrrolo[2,3-b]pyridin-4-yl)-benzamide] | 500 to 5000 | 500 to 5000 | 500 to 5000
14 | O=C(c1cccc(-c2ccnc3[nH]ccc23)c1)N1CCCCC1 [compound 93, Piperidin-1-yl-[3-(1H-pyrrolo[2,3-b]pyridin-4-yl)-phenyl]-methanone] | 500 to 5000 | > 5000 | 500 to 5000

Other lines, results leading:

Row | Ki (JAK3) [nM] | Ki (JAK2) [nM] | Ki (ROCK I) [nM] | SMILES
15 | 500 to 5000 | < 500 | < 500 | O=C(CC(F)(F)F)N1CC=C(c2ccnc3[nH]ccc23)CC1 [compound 65]
16 | 500 to 5000 | < 500 | < 500 | N#CCC(=O)N1CC=C(c2ccnc3[nH]ccc23)CC1 [compound 66]
17 | < 500 | < 500 | 500 to 5000 | C=C(c1c(Cl)cnc2[nH]ccc12)C1CCCC1 [compound 67]
18 | < 500 | 500 to 5000 | 500 to 5000 | CC1CCCC=C1c1c(Cl)cnc2[nH]ccc12 (stereo not drawn) [compound 68]
19 | < 500 | 500 to 5000 | 500 to 5000 | C=C(c1c(Cl)cnc2[nH]ccc12)C1CCCCC1 [compound 69]
20 | < 500 | < 500 | 500 to 5000 | Cn1cc(-c2c(Cl)cnc3[nH]ccc23)cn1 [compound 70, 5-Chloro-4-(1-methyl-1H-pyrazol-4-yl)-1H-pyrrolo[2,3b]pyridine]
21 | < 500 | < 500 | < 500 | CC(C)(C#N)c1cccc(-c2ccnc3[nH]ccc23)n1 [compound 71, 2-(6-(1H-pyrrolo[2,3-b]pyridin-4-yl)pyridin-2-yl)-2-methylpropanetrile]
22 | < 500 | < 500 | 500 to 5000 | CC(=O)N1CCCN(c2cccc(-c3c(Cl)cnc4[nH]ccc34)n2)CC1 [compound 76, 1-(4-(6-(5-Chloro-1H-pyrrolo[2,3-b]pyridin-4-yl)pyridin-2-yl)-1,4-diazepan-1-yl)ethanone]
23 | < 500 | < 500 | 500 to 5000 | CN(CCO)c1cccc(-c2c(Cl)cnc3[nH]ccc23)n1 [compound 77]
24 | < 500 | < 500 | 500 to 5000 | Clc1cnc2[nH]ccc2c1-c1cn[nH]c1 [compound 80, 5-Chloro-4-(1H-pyrazol-4-yl)-1H-pyrrolo[2,3b]pyridine]
25 | < 500 | < 500 | 500 to 5000 | O=C(O)c1cc(-c2c(Cl)cnc3[nH]ccc23)c[nH]1 [compound 81, 4-(5-Chloro-1H-pyrrolo[2,3b]pyridin-4-yl)-1H-pyrrole-2-carboxylic acid]
26 | < 500 | < 500 | 500 to 5000 | Clc1cnc2[nH]ccc2c1-c1ccsc1 [compound 82, 5-Chloro-4-(thiophen-3-yl)-1H-pyrrolo[2,3b]pyridine]
27 | < 500 | < 500 | 500 to 5000 | CN(C)CCN(C)c1cccc(-c2c(Cl)cnc3[nH]ccc23)n1 [compound 83]
28 | < 500 | 500 to 5000 | < 500 | CN(C)Cc1cccc(-c2ccnc3[nH]ccc23)c1 [compound 85, Dimethyl-[3-(1H-pyrrolo[2,3-b]pyridin-4-yl)-benzyl]-amine]
29 | < 500 | < 500 | 500 to 5000 | CC1CC=C(c2c(Cl)cnc3[nH]ccc23)C1C (stereo not drawn) [compound 90]
